Results: paper PMC2770570 (BMC Cancer, 2009)
“Also recorded” adds a separate entry of the source. Where a name gives a salt, the structure may show the parent alone.

Tests used:
KAT-18 cells [1] = assay: Apoptosis (TUNEL) in KAT-18 cells; type: cell-based, human; conditions: 72 h, data not shown
Protocol: Cells were harvested after 72 h of drug treatment, and TUNEL assays conducted according to manufacturer's recommendations.

KAT-18 cells [2] = assay: DNA synthesis (BrdU incorporation) in KAT-18 cells; type: cell-based, human; conditions: 10^-6 M, 72 h; 30 μM BrdU 3 h prior to fixing (Fig. 5)
Protocol: To examine DNA synthesis, KAT-18 cells were seeded onto 22 mm diameter coverglasses placed in 6-well plates (3 × 10^3 cells/coverglass), and treated with compounds for 72 h; media and drugs were replaced daily. Three h prior to fixing cells, 30 μM BrdU (Sigma Chemicals, Indianapolis, IN) was added to cultures. Cells were rinsed, fixed in 10% neutral buffered formalin for 10 min, and stained with antibodies to BrdU (anti-BrdU-BOD, Roche/Invitrogen). At least 1000 cells/treatment using at least 2 coverglasses/treatment were counted, and the number of positive cells recorded. Labeling indexes were calculated as the number of positive stained cells divided by total cells.

KAT-18 cells [3] = assay: Necrosis (trypan blue) in KAT-18 cells; type: cell-based, human; conditions: data not shown
Protocol: Necrosis was recorded as the number of positive trypan blue cells in any cell growth assay.

WRO 82-1 cells = assay: Cell proliferation assay (cell number), WRO 82-1 follicular thyroid cancer cells; type: cell-based, human; conditions: 10^-6 M, 72 h (Fig. 7B)
Protocol: (§1) The ATC cell line, KAT-18, was generously provided by Dr. K.B. Ain, The University of Kentucky, Lexington, KY) and the FTC cell line, WRO 82-1, was established by Dr. G. Juillard (University of California at Los Angeles, CA). The poorly differentiated papillary thyroid carcinoma cell line, KTC-1 [31], was a generous gift of Dr. James A. Fagin (Memorial Sloan Kettering Cancer Center, New York, NY). The KAT-18 cells were grown in phenol-red free RPMI 1640 media (GIBCO/Invitrogen, Carlsbad, CA), and the WRO 82-1 and KTC-1 cells were grown in standard RPMI 1640 media supplemented with 1% non-essential amino acids. All media were supplemented with 10% fetal calf serum, 2 mM L-glutamine, 1.2% sodium bicarbonate, and antibiotics (5,000 Units/ml penicillin, 5 mg/ml streptomycin, 10 mg/ml neomycin). The cell cultures were maintained in a humidified atmosphere of 5% CO2 at 37°C. […]
(§2) Cells were seeded at equivalent amounts into 6- or 24-well plates (Falcon) and counted 24 h later (time 0) to determine plating efficiency. […] Cells were harvested by trypsinization with 0.25% trypsin/0.53 mM EDTA, centrifuged, and counted with a hemacytometer. Cell viability was determined by trypan blue staining. At least two aliquots per well, and 2-4 wells/treatment, were counted for each experiment. […]

KTC-1 cells = assay: Cell proliferation assay (cell number), KTC-1 papillary thyroid cancer cells; type: cell-based, human; conditions: 10^-6 M, 72 h (Fig. 6B)
Protocol: as §1, §2

KAT-18 cells [4] = assay: Growth of KAT-18 cells transfected with OGFr siRNA or scrambled siRNA; type: cell-based, human
Protocol: (§3) The OGFr-targeted siRNAs (antisense:5'-[…]-3'; sense: 5'-[…]-3') were designed and obtained as ready-annealed, purified duplex probes from Ambion (Austin, TX). For transfection, 5 × 10^4 KAT-18 cells per well were seeded in 6-well plates containing 1 ml of serum-containing media without antibiotics. In each well, 20 nM OGFr-siRNA or control siRNA solutions in serum-free media were added. […] At 72 h cells were collected for computing growth. Two independent experiments were conducted. The scrambled siRNAs were purchased from Ambion.

KAT-18 cells [5] = assay: Cell proliferation assay (cell number), KAT-18 anaplastic thyroid cancer cells; type: cell-based, human
Protocol: The ATC cell line, KAT-18, was generously provided by Dr. K.B. Ain, The University of Kentucky, Lexington, KY) and the FTC cell line, WRO 82-1, was established by Dr. G. Juillard (University of California at Los Angeles, CA). The poorly differentiated papillary thyroid carcinoma cell line, KTC-1 [31], was a generous gift of Dr. James A. Fagin (Memorial Sloan Kettering Cancer Center, New York, NY). […] The cell cultures were maintained in a humidified atmosphere of 5% CO2 at 37°C. All cell lines were free of Mycoplasma and confirmed by single nucleotide polymorphism array analysis to be unique follicular cell-derived thyroid cancer cell lines.
Media and compounds were replaced daily. […] Cell viability was determined by trypan blue staining. At least two aliquots per well, and 2-4 wells/treatment, were counted for each experiment. Two to five experiments were conducted for each measure performed.

OGFr protein = assay: Semi-quantitative immunocytochemistry of OGFr protein after siRNA transfection of KAT-18 cells; type: cell-based, human; conditions: 72 h after transfection; mean staining intensity, approximately 50 cells/group (Fig. 4B)
Protocol: as §3
KAT-18 cells were seeded onto coverglasses, transiently transfected with OGFr-siRNA, and 72 h later stained with polyclonal antibodies to OGFr in order to detect the level of protein knockdown. OGFr protein levels were assessed by semi-quantitative immunocytochemistry whereby images were taken at the same exposure time with special care not to photobleach samples. The mean intensity of staining was determined for approximately 50 cells/group.

OGFr mRNA = assay: Northern blot analysis of OGFr after siRNA transfection of KAT-18 cells; type: cell-based, human; conditions: 20 nM siRNA; OGFr/GAPDH ratio by densitometry (Fig. 4A)
Protocol: as §3
Some cultures were transfected with siRNAs and then harvested 72 h later for Northern analysis. Total RNA was extracted using the Paris Kit (Ambion), separated on an agarose gel, and mRNA transferred to nylon membrane (Immobilon, Bio-Rad Laboratories, Hercules, CA). Membranes were probed with ^32P-dCTP- OGFr cDNA. To determine equal loading, blots were stripped and reprobed with radiolabeled GAPDH and optical density of each band was determined by densitometry and analyzed by QuickOne (Bio-Rad Laboratories). Each value was normalized to GAPDH from the same blot.

OGFr = target: T1, OGFr (Homo sapiens, UniProt Q9NZT2); assay: receptor binding assay
T1 chain: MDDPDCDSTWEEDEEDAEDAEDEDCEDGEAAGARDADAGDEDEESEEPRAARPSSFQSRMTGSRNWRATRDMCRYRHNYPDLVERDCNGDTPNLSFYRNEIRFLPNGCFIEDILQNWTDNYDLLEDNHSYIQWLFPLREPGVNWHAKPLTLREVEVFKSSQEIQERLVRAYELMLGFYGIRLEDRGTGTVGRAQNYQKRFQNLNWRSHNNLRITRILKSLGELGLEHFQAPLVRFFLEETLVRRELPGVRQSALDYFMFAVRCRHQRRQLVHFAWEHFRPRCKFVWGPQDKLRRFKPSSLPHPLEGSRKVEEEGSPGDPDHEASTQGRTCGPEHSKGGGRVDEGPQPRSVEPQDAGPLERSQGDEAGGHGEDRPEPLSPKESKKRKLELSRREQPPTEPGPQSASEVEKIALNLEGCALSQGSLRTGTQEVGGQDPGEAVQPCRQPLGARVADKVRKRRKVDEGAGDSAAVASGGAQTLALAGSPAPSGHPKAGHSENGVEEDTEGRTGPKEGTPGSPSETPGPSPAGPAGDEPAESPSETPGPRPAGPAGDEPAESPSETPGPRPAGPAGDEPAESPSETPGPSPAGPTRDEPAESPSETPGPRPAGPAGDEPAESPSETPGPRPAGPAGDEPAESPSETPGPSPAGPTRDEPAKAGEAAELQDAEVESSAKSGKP

[6] = 10^-6 M NTX, cultures receiving OGFr siRNA (Fig. 4C)
[7] = 10^-6 M, 72 h, opioid specificity experiment (Fig. 3A)
[8] = 10^-6 M OGF, cells transfected with OGFr siRNA (Fig. 4C)

Molecule: O=C1CC[C@@]2(O)[C@H]3Cc4ccc(O)c5c4[C@@]2(CCN3CC2CC2)[C@H]1O5 [NTX, naltrexone]
- apoptosis relative to positive control samples (KAT-18 cells [1]): negligible
- number of apoptotic cells vs control (KAT-18 cells [1]): No differences in the number of apoptotic or necrotic cells
- increase in DNA synthesis (BrdU) vs control (KAT-18 cells [2]): 25%
- necrosis (KAT-18 cells [3]): negligible
- number of necrotic cells vs control (KAT-18 cells [3]): No differences in the number of apoptotic or necrotic cells
- increase in cell number from control (WRO 82-1 cells): 30%
- increase in cell number from control (KTC-1 cells): 30%
- cell number vs OGFr siRNA plus vehicle (KAT-18 cells [4]; [6]): did not differ from cells receiving OGFr siRNA plus vehicle
- increase in cell number vs wildtype cells (KAT-18 cells [4]; [6]): 70%
- increase in cell number vs wildtype cells receiving vehicle (KAT-18 cells [4]; 10^-6 M NTX, untreated and scrambled siRNA cultures (Fig. 4C)): 32%

Molecule: CN1CC[C@]23c4c5ccc(O)c4O[C@H]2[C@@H](O)C=C[C@H]3[C@H]1C5 [morphine, morphine sulfate]
- effect on cell proliferation vs control (KAT-18 cells [5]; [7]): Only OGF altered cell proliferation significantly

Molecule: C=CCN1CC[C@]23c4c5ccc(O)c4O[C@H]2C(=O)CC[C@@]3(O)[C@H]1C5 [naloxone]
- effect of naloxone on the OGF-induced depression in cell acquisition (KAT-18 cells [5]; KAT-18 cells): blocked the depression in cell acquisition
- change in cell number vs control (KAT-18 cells [5]; naloxone 10^-6 M with or without OGF 10^-6 M, 72 h (Fig. 2C)): no change in cell number; also recorded: did not have any influence on cell replication

Molecule: [D-Ala^2, MePhe^4, Glycol^5]-enkephalin [DAMGO]
- effect on cell proliferation vs control (KAT-18 cells [5]; [7]): Only OGF altered cell proliferation significantly

Molecule: [D-Pen^2,5]-enkephalin [DPDPE]
- effect on cell proliferation vs control (KAT-18 cells [5]; [7]): Only OGF altered cell proliferation significantly

Molecule: [Met^5]-enkephalin [OGF]
- number of apoptotic cells vs control (KAT-18 cells [1]): No differences in the number of apoptotic or necrotic cells
- decrease in proportion of BrdU labeled cells vs control (KAT-18 cells [2]): 28%
- reduction in cell number from control (KAT-18 cells [5]; 10^-4 M, 72 h, dose-response (Fig. 2A)): 38%
- reduction in cell number from control (KAT-18 cells [5]; 10^-5 M, 72 h, dose-response (Fig. 2A)): 13%
- reduction in cell number from control (KAT-18 cells [5]; 10^-6 M continuously, at 96 h (Fig. 2D)): 16%
- reduction in cell number from control (KAT-18 cells [5]; 10^-6 M continuously, at 120 h (Fig. 2D)): 28%
- reduction in cell number from control (KAT-18 cells [5]; 10^-6 M for 72 h, then media without OGF, at 96 h (Fig. 2D)): 6%
- reduction in cell number from control (KAT-18 cells [5]; 10^-6 M for 72 h, then media without OGF, at 120 h (Fig. 2D)): 8%
- reduction in cell number from control (KAT-18 cells [5]; 10^-6 M, 72 h, dose-response (Fig. 2A)): 14%
- reduction in cell number from control (KAT-18 cells [5]; 10^-6 M, 72 h, naloxone experiment (Fig. 2C)): 20%
- decrease in cell number from control (KAT-18 cells [5]; [7]): 33%
- reduction in cell number from control (KAT-18 cells [5]; 10^-6 M, 72 h, reversibility study (Fig. 2D)): 22%
- effect on cell number vs control (KAT-18 cells [5]; 10^-7 M, 72 h, dose-response (Fig. 2A)): no significant effect on cell number
- duration of growth repression in presence of drug (KAT-18 cells [5]; KAT-18 cells): up to 120 h
- time to observed growth repression after initiating drug exposure (KAT-18 cells [5]; KAT-18 cells): ≤ 24 h
- maximum reduction in cell number ("by as much as") (KAT-18 cells [5]; KAT-18 cells, abstract): ≤ 38%
- necrosis (KAT-18 cells [3]): negligible
- number of necrotic cells vs control (KAT-18 cells [3]): No differences in the number of apoptotic or necrotic cells
- reduction in cell number from control (WRO 82-1 cells): 17%
- reduction in cell number from control (KTC-1 cells): 31%
- cell number, OGF vs sterile water (KAT-18 cells [4]; [8]): did not differ in cell number from each other
- effect on cell number (KAT-18 cells [4]; [8]): no effect
- reduction in cell number (KAT-18 cells [4]; 10^-6 M OGF, untransfected cultures and those transfected with scrambled siRNAs (Fig. 4C)): 30%

Molecule: antisense:5'-uagaaacucagguuuggcg-3'; sense: 5'-cgccaaaccugaguuucua-3' (sense CGCCAAACCUGAGUUUCUA; antisense UAGAAACUCAGGUUUGGCG; chemistry not fully specified) [OGFr siRNA, OGFr-targeted siRNAs, ready-annealed, purified duplex probes from Ambion]
- decrease in OGFr protein expression relative to untransfected and scrambled siRNA cells (OGFr protein): 47%
- OGFr level relative to cells treated with vehicle only (OGFr mRNA): less than 25%
- increase in cell number vs vehicle only and scrambled siRNA (KAT-18 cells [4]; 20 nM siRNA, 72 h (Fig. 4C)): approximately 70%
- effectiveness of OGFr siRNA knockdown in increasing cell number relative to NTX (KAT-18 cells [4]; KAT-18 cells): over twice as effective

Molecule: dynorphin A1-8 (YGGFLRRI; Dynorphin A(1-8); UniProt P01213 207-214, looked up)
- effect on cell proliferation vs control (KAT-18 cells [5]; [7]): Only OGF altered cell proliferation significantly

Molecule: endomorphin 1
- effect on cell proliferation vs control (KAT-18 cells [5]; [7]): Only OGF altered cell proliferation significantly

Molecule: endomorphin 2
- effect on cell proliferation vs control (KAT-18 cells [5]; [7]): Only OGF altered cell proliferation significantly

Molecule: β-endorphin (YGGFMTSEKSQTPLVTLFKNAIIKNAYKKGE; Beta-endorphin; UniProt P01189 237-267, looked up)
- effect on cell proliferation vs control (KAT-18 cells [5]; [7]): Only OGF altered cell proliferation significantly

Molecule: YGGFM [opioid growth factor (OGF)]
- Kd (OGFr): 3.5 nM
